# Measured values reported in patent US12655116B2, “Substituted isophthalic acid diamides” (Bayer Aktiengesellschaft, priority 2020, dated 2026).
# Assays:
# AVEFA [1] = assay: Post-emergence herbicidal action against AVEFA; type: in vivo, Avena fatua; conditions: Avena fatua, 504 h, 20 g/ha, visual assessment about 3 weeks after treatment, 100% = plants have died, 0% = like control plants
# Method in brief: (§1)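 Post-emergence greenhouse test; one-leaf stage, 2–3 wk post-sowing, sandy loam. Foliar spray of WP/EC in water, 600–800 l/ha, +0.2% wetting agent. Visual % action at ~3 wk vs untreated (100% = plants dead).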
# ABUTH [2] = assay: Post-emergence herbicidal action against ABUTH; type: in vivo, Abutilon theophrasti; conditions: Abutilon theophrasti, 504 h, visual assessment about 3 weeks after treatment vs untreated controls; for pest or weed control at 5 g/ha: dosage 5 g/ha; for pest or weed control at 20 g/ha: dosage 20 g/ha
# Method in brief: as §1
# ALOMY [3] = assay: Post-emergence herbicidal action against ALOMY; type: in vivo, Alopecurus myosuroides; conditions: Alopecurus myosuroides, 504 h, visual assessment about 3 weeks after treatment vs untreated controls; for pest or weed control at 20 g/ha: dosage 20 g/ha
# Method in brief: as §1
# VERPE [4] = assay: Post-emergence herbicidal action against VERPE; type: in vivo, Veronica persica; conditions: Veronica persica, 504 h, 20 g/ha
# Method in brief: as §1
# VERPE [5] = assay: Pre-emergence herbicidal action against VERPE; type: in vivo, Veronica persica; conditions: Veronica persica, 504 h; for pest or weed control at 80 g/ha: dosage 80 g/ha
# Method in brief: (§2)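 Herbicidal effect was assessed 3 weeks after treatment by visual comparison with untreated controls, 100% denoting dead plants. Aqueous WP or EC preparations had been applied at 600 to 800 l/ha with 0.2% wetting agent to the soil covering freshly sown seeds.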
# ALOMY [6] = assay: Pre-emergence herbicidal action against ALOMY; type: in vivo, Alopecurus myosuroides; conditions: Alopecurus myosuroides, 504 h, pre-emergence; for pest or weed control at 80 g/ha: scored visually after 3 weeks vs untreated controls (100% = plants have died, 0% = like control plants)
# Method in brief: as §2
# LOLRI = assay: Pre-emergence herbicidal action against LOLRI; type: in vivo, Lolium rigidum; conditions: Lolium rigidum, 504 h, 80 g/ha
# Method in brief: as §2
# SETVI [7] = assay: Pre-emergence herbicidal action against SETVI; type: in vivo, Setaria viridis; conditions: Setaria viridis, 504 h; for pest or weed control at 80 g/ha: dosage 80 g/ha
# Method in brief: as §2
# AVEFA [8] = assay: Pre-emergence herbicidal action against AVEFA; type: in vivo, Avena fatua; conditions: Avena fatua, 504 h, pre-emergence
# Method in brief: as §2
# SETVI [9] = assay: Post-emergence herbicidal action against SETVI; type: in vivo, Setaria viridis; conditions: Setaria viridis, 504 h; for pest or weed control at 20 g/ha: dosage 20 g/ha
# Method in brief: as §1
# AMARE [10] = assay: Post-emergence herbicidal action against AMARE; type: in vivo, Amaranthus retroflexus; conditions: Amaranthus retroflexus, 504 h, 20 g/ha, visual assessment about 3 weeks after treatment, 100% = plants have died, 0% = like control plants
# Method in brief: as §1
# ECHCG [11] = assay: Pre-emergence herbicidal action against ECHCG; type: in vivo, Echinochloa crus-galli; conditions: Echinochloa crus-galli, 504 h, 80 g/ha
# Method in brief: as §2
# VIOTR [12] = assay: Pre-emergence herbicidal action against VIOTR; type: in vivo, Viola tricolor; conditions: Viola tricolor, 504 h; for pest or weed control at 80 g/ha: dosage 80 g/ha
# Method in brief: as §2
# AMARE [13] = assay: Pre-emergence herbicidal action against AMARE; type: in vivo, Amaranthus retroflexus; conditions: Amaranthus retroflexus, 504 h, scored visually after 3 weeks vs untreated controls, 100% = plants have died, 0% = like control plants
# Method in brief: as §2
# MATIN [14] = assay: Pre-emergence herbicidal action against MATIN; type: in vivo, Matricaria inodora; conditions: Tripleurospermum inodorum, 504 h; for pest or weed control at 80 g/ha: dosage 80 g/ha
# Method in brief: as §2
# PHBPU = assay: Post-emergence herbicidal action against PHBPU; type: in vivo, Pharbitis purpurea; conditions: Ipomoea purpurea, 504 h, dosage 20 g/ha
# Method in brief: as §1
# ABUTH [15] = assay: Pre-emergence herbicidal action against ABUTH; type: in vivo, Abutilon theophrasti; conditions: Abutilon theophrasti, 504 h, 80 g/ha, scored visually after 3 weeks vs untreated controls (100% = plants have died, 0% = like control plants)
# Method in brief: as §2
# VIOTR [16] = assay: Post-emergence herbicidal action against VIOTR; type: in vivo, Viola tricolor; conditions: Viola tricolor, 504 h, 20 g/ha
# Method in brief: as §1
# DIGSA = assay: Pre-emergence herbicidal action against DIGSA; type: in vivo, Digitaria sanguinalis; conditions: Digitaria sanguinalis, 504 h
# Method in brief: as §2
# MATIN [17] = assay: Post-emergence herbicidal action against MATIN; type: in vivo, Matricaria inodora; conditions: Tripleurospermum inodorum, 504 h
# Method in brief: as §1
# ECHCG [18] = assay: Post-emergence herbicidal action against ECHCG; type: in vivo, Echinochloa crus-galli; conditions: Echinochloa crus-galli, 504 h, dosage 20 g/ha
# Method in brief: as §1
# [19] = 20 g/ha, scored visually after 3 weeks, 100% = plants have died, 0% = like control plants
Structure (SMILES),pest or weed control at 20 g/ha (AVEFA [1]) [%],pest or weed control at 5 g/ha (ABUTH [2]) [%],pest or weed control at 20 g/ha (ABUTH [2]) [%],pest or weed control at 20 g/ha (ALOMY [3]) [%],pest or weed control at 80 g/ha (VERPE [5]) [%],pest or weed control at 80 g/ha (ALOMY [6]) [%],pest or weed control at 80 g/ha (LOLRI) [%],pest or weed control at 80 g/ha (SETVI [7]) [%],pest or weed control at 80 g/ha (AVEFA [8]) [%],pest or weed control at 20 g/ha (SETVI [9]) [%],pest or weed control at 20 g/ha (AMARE [10]) [%],pest or weed control at 80 g/ha (ECHCG [11]) [%],pest or weed control at 80 g/ha (VIOTR [12]) [%],pest or weed control at 20 g/ha (AMARE [13]) [%],pest or weed control at 80 g/ha (AMARE [13]) [%],pest or weed control at 80 g/ha (MATIN [14]) [%],also measured
CNC(=O)c1c(Cl)ccc(C(=O)Nc2nnnn2C)c1Br [Example 1-349],80,80,90,80,90,100,90,100,100,90,100,90,100,100,100,90,pest or weed control at 20 g/ha (VERPE [4]): 80%; pest or weed control at 20 g/ha (VERPE [5]; dosage 20 g/ha): 90%; pest or weed control at 20 g/ha (SETVI [7]; dosage 20 g/ha): 90%; pest or weed control at 5 g/ha (SETVI [9]; dosage 5 g/ha): 90%
CCNC(=O)c1c(Br)ccc(C(=O)Nc2nnnn2CC)c1Cl [Example 2-178],80,90,90,90,90,100,80,100,100,90,100,100,100,100,100,100,pest or weed control at 20 g/ha (PHBPU): 90%; pest or weed control at 5 g/ha (ALOMY [3]; dosage 5 g/ha): 80%; pest or weed control at 80 g/ha (ABUTH [15]): 100%; pest or weed control at 20 g/ha (VIOTR [16]): 90%; pest or weed control at 20 g/ha (DIGSA; dosage 20 g/ha): 100%; pest or weed control at 80 g/ha (DIGSA; dosage 80 g/ha): 100%; pest or weed control at 20 g/ha (ALOMY [6]; [19]): 80%; pest or weed control at 5 g/ha (MATIN [17]; dosage 5 g/ha): 90%; pest or weed control at 20 g/ha (MATIN [17]; dosage 20 g/ha): 90%; pest or weed control at 20 g/ha (ECHCG [18]): 90%; pest or weed control at 20 g/ha (AVEFA [8]; [19]): 90%; pest or weed control at 20 g/ha (VIOTR [12]; dosage 20 g/ha): 100%; pest or weed control at 20 g/ha (MATIN [14]; dosage 20 g/ha): 90%
